Common to all, as to format: biochemical
The target of one assay is HDAC3 (Homo sapiens (Human), UniProt O15379). The assay can be described thus: HDAC enzyme assay HDAC3. The protocol:
Compounds for testing were diluted in DMSO to 50 fold the final concentration and a ten-point three-fold dilution series was made. The compounds were diluted in assay buffer (50 mM HEPES, pH 7.4, 100 mM KCl, 0.001% Tween-20, 0.05% BSA, 20 μM TCEP) to 6-fold their final concentration. The HDAC enzymes (purchased from BPS Biosciences) were diluted to 1.5-fold their final concentration in assay buffer. The tripeptide substrate and trypsin at 0.05 μM final concentration were diluted in assay buffer at 6-fold their final concentration. The final enzyme concentrations used in these assays were 3.3 ng/ml (HDAC1), 0.2 ng/ml (HDAC2) and 0.08 ng/ml (HDAC3). The final substrate concentrations used were 16 μM (HDAC1), 10 μM (HDAC2) and 17 μM (HDAC3). Five μl of compounds and 20 μl of enzyme were added to wells of a black, opaque 384 well plate in duplicate. Enzyme and compound were incubated together at room temperature for 10 minutes. Five μl of substrate was added to each well, the plate was shaken for 60 seconds and placed into a Victor 2 microtiter plate reader. The development of fluorescence was monitored for 60 min and the linear rate of the reaction was calculated. The IC50 was determined using Graph Pad Prism by a four parameter curve fit. In Table 4 below, letter designations are defined as follows: […]

The target in a further assay is HDAC1 (Homo sapiens (Human), UniProt Q13547). The experiment in a line: HDAC enzyme assay HDAC1.
In another assay the target is HDAC2 (Homo sapiens (Human), UniProt Q92769). The assay can be described thus: HDAC enzyme assay HDAC2. The protocol: Compounds for testing were diluted in DMSO to 50 fold the final concentration and a ten-point three-fold dilution series was made. The compounds were diluted in assay buffer (50 mM HEPES, pH 7.4, 100 mM KCl, 0.001% Tween-20, 0.05% BSA, 20 μM TCEP) to 6-fold their final concentration. The HDAC enzymes (purchased from BPS Biosciences) were diluted to 1.5-fold their final concentration in assay buffer. The tripeptide substrate and trypsin at 0.05 μM final concentration were diluted in assay buffer at 6-fold their final concentration. The final enzyme concentrations used in these assays were 3.3 ng/ml (HDAC1), 0.2 ng/ml (HDAC2) and 0.08 ng/ml (HDAC3). The final substrate concentrations used were 16 μM (HDAC1), 10 μM (HDAC2) and 17 μM (HDAC3).
Five μl of compounds and 20 μl of enzyme were added to wells of a black, opaque 384 well plate in duplicate. Enzyme and compound were incubated together at room temperature for 10 minutes. Five μl of substrate was added to each well, the plate was shaken for 60 seconds and placed into a Victor 2 microtiter plate reader. The development of fluorescence was monitored for 60 min and the linear rate of the reaction was calculated. The IC50 was determined using Graph Pad Prism by a four parameter curve fit.

Each structure is given as a SMILES string.

For 31 compounds, IC50 results are on record in patent US10385031B2, “Substituted piperazines as selective HDAC1,2 inhibitors” (Regenacy Pharmaceuticals, LLC, priority 2016, dated 2019).

HDAC3, sequence (O15379 whole entry): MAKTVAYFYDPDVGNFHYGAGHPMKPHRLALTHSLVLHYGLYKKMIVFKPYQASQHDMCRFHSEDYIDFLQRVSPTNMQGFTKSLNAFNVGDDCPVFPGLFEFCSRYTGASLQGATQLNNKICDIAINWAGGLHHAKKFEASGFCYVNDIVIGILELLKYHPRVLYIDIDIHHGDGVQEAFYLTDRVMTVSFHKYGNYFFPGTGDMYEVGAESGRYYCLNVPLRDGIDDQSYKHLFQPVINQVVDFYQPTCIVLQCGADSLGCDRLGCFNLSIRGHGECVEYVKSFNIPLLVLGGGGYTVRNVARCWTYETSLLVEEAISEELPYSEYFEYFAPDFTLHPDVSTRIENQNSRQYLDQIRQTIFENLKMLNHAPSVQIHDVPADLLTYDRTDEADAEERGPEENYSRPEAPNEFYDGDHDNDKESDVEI
HDAC3, sequence (Q9Y618 395-489 partner): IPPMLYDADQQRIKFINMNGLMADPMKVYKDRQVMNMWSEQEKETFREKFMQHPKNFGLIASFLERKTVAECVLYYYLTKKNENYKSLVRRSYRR
HDAC1, sequence (Q13547 whole entry): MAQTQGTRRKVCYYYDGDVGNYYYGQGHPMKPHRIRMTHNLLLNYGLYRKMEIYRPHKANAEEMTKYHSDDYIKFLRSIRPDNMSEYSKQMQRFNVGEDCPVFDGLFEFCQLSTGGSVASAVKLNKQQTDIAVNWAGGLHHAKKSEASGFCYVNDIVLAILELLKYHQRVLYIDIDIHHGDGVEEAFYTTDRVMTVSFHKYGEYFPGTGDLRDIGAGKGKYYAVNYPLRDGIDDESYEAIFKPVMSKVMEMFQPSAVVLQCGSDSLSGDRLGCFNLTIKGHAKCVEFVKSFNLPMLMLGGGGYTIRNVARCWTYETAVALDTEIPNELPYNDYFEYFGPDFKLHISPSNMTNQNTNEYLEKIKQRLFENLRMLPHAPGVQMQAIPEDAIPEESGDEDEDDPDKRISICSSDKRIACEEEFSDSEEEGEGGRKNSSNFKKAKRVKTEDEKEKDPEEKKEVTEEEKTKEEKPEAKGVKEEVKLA
HDAC2, sequence (Q92769 whole entry): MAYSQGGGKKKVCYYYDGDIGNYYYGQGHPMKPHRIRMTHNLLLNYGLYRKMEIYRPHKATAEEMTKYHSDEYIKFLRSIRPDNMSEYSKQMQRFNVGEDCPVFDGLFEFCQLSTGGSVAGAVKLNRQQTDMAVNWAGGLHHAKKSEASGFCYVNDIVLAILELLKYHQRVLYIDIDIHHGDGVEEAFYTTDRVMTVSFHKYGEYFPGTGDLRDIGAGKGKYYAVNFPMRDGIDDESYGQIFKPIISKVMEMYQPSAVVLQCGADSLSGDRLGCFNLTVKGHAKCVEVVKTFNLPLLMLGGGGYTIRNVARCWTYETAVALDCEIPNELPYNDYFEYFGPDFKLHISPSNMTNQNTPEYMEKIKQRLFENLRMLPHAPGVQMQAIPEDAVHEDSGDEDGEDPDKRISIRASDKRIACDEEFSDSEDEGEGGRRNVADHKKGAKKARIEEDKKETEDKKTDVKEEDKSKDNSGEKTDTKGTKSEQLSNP

By IC50 is commonly meant the concentration that gives 50% inhibition. A higher IC50 goes with lower potency. As for `Nc1ccc(-c2cccs2)cc1NC(=O)c1csc(N2CCNCC2)n1` [Compound 059], the IC50 on HDAC3 was 10 to 500 nM; against HDAC1 it was over 500 nM; against HDAC2, 10 to 500 nM.

For the compound `Nc1ccc(-c2cccs2)cc1NC(=O)c1cnc(N2CCNCC2)o1` [Compound 060], the IC50 against HDAC3, against HDAC1 and at HDAC2 was over 500 nM in each case.

`Nc1ccc(-c2ccco2)cc1NC(=O)c1cnc(N2CCNCC2)o1` [Compound 061]: the IC50 on HDAC3, on HDAC1 and against HDAC2 was over 500 nM each time.

As for `Nc1ccc(-c2ccccc2)cc1NC(=O)c1cnc(N2CCNCC2)o1` [Compound 062], the IC50 at HDAC3, against HDAC1 and at HDAC2 was over 500 nM each time.

As to `Nc1ccc(-c2ccc(F)cc2)cc1NC(=O)c1cnc(N2CCNCC2)o1` [Compound 063], the IC50 against HDAC3, at HDAC1 and at HDAC2 was over 500 nM each time.

As for `Nc1ccc(-c2ccccc2)cc1NC(=O)c1ccc(N2CCNCC2)s1` [Compound 064], the IC50 on HDAC3 was 10 to 500 nM; against HDAC1, under 10 nM; on HDAC2, 10 to 500 nM.

`Nc1ccc(-c2ccco2)cc1NC(=O)c1ccc(N2CCNCC2)s1` [Compound 065]: the IC50 against HDAC3 was 10 to 500 nM; against HDAC1, under 10 nM; against HDAC2, 10 to 500 nM.

On to `Nc1ccc(-c2ccoc2)cc1NC(=O)c1ccc(N2CCNCC2)s1` [Compound 066], for which the IC50 was 10 to 500 nM against HDAC3, under 10 nM against HDAC1 and 10 to 500 nM on HDAC2.

As for `Nc1ccc(-c2ccncc2)cc1NC(=O)c1ccc(N2CCNCC2)s1` [Compound 067], the IC50 was 10 to 500 nM at HDAC3, under 10 nM at HDAC1 and 10 to 500 nM against HDAC2.

In the case of `Nc1ccc(-c2ccc(F)cc2)cc1NC(=O)c1ccc(N2CCNCC2)s1` [Compound 068], the IC50 against HDAC3 was 10 to 500 nM; against HDAC1, under 10 nM; at HDAC2, 10 to 500 nM.

`Nc1ccc(-c2ccccc2)cc1NC(=O)c1cc(N2CCNCC2)cs1` [Compound 069]: the IC50 against HDAC3 was over 500 nM; against HDAC1 it was 10 to 500 nM; on HDAC2, 10 to 500 nM.

Consider `CN1CCN(c2ccc(C(=O)Nc3cc(-c4ccccc4)ccc3N)cn2)CC1` [Compound 070], for which the IC50 against HDAC3 was 10 to 500 nM; on HDAC1, under 10 nM; on HDAC2 it was 10 to 500 nM.

In the case of `Nc1ccc(-c2cccnc2)cc1NC(=O)c1ccc(N2CCNCC2)nc1` [Compound 072], the IC50 against HDAC3, against HDAC1 and on HDAC2 was 10 to 500 nM each time.

Take `Nc1ccc(-c2ccccn2)cc1NC(=O)c1ccc(N2CCNCC2)nc1` [Compound 073]: the IC50 is over 500 nM at HDAC3, 10 to 500 nM against HDAC1 and 10 to 500 nM at HDAC2.

In the case of `CN1CCN(c2ccc(C(=O)Nc3cc(-c4ccco4)ccc3N)cn2)CC1` [Compound 074], the figures for the IC50 against HDAC3, against HDAC1 and on HDAC2 were 10 to 500 nM, under 10 nM and 10 to 500 nM, respectively.

Take `CN1CCN(c2ccc(C(=O)Nc3cc(-c4ccoc4)ccc3N)cn2)CC1` [Compound 075]: the values for the IC50 against HDAC3, against HDAC1 and against HDAC2 were 10 to 500 nM, under 10 nM and 10 to 500 nM, respectively.

Regarding `Nc1ccc(-c2ccccc2F)cc1NC(=O)c1ccc(N2CCNCC2)nc1` [Compound 076], the IC50 is 10 to 500 nM on HDAC3, under 10 nM against HDAC1 and 10 to 500 nM against HDAC2.

On to `Nc1ccc(-c2cccc(F)c2)cc1NC(=O)c1ccc(N2CCNCC2)nc1` [Compound 077], for which the IC50 on HDAC3, against HDAC1 and against HDAC2 was 10 to 500 nM throughout.

On to `Nc1ccc(-c2cc(F)cc(F)c2)cc1NC(=O)c1ccc(N2CCNCC2)nc1` [Compound 078], for which the IC50 at HDAC3 is over 500 nM; against HDAC1 it was over 500 nM; against HDAC2, 10 to 500 nM.

Take `CN1CCN(c2ccc(C(=O)Nc3cc(-c4ccccc4)ccc3N)nc2)CC1` [Compound 079]: the values for the IC50 against HDAC3, against HDAC1 and at HDAC2 were 10 to 500 nM, under 10 nM and 10 to 500 nM, respectively.

Take `CN1CCN(c2ccc(C(=O)Nc3cc(-c4cccs4)ccc3N)nc2)CC1` [Compound 080]: the IC50 is 10 to 500 nM on HDAC3, under 10 nM against HDAC1 and under 10 nM at HDAC2.

For `Nc1ccc(-c2ccccn2)cc1NC(=O)c1ccc(N2CCNCC2)cn1` [Compound 081], the IC50 was over 500 nM on HDAC3, 10 to 500 nM on HDAC1 and 10 to 500 nM against HDAC2.

For the compound `CN1CCN(c2ccc(C(=O)Nc3cc(-c4ccco4)ccc3N)nc2)CC1` [Compound 082], the IC50 against HDAC3 was 10 to 500 nM; at HDAC1, under 10 nM; against HDAC2, 10 to 500 nM.

Consider `CN1CCN(c2ccc(C(=O)Nc3cc(-c4ccoc4)ccc3N)nc2)CC1` [Compound 083], for which the values for the IC50 against HDAC3, at HDAC1 and against HDAC2 were 10 to 500 nM, under 10 nM and 10 to 500 nM, respectively.

As for `Nc1ccc(-c2cc(F)cc(F)c2)cc1NC(=O)c1ccc(N2CCNCC2)cn1` [Compound 084], the IC50 against HDAC3, against HDAC1 and against HDAC2 was over 500 nM each time.

Regarding `Nc1ccc(-c2ccccc2)cc1NC(=O)c1cnc(N2CCNCC2)cn1` [Compound 085], the results for the IC50 on HDAC3, against HDAC1 and against HDAC2 were 10 to 500 nM, under 10 nM and 10 to 500 nM, respectively.

In the case of `CN1CCN(c2cnc(C(=O)Nc3cc(-c4cccs4)ccc3N)cn2)CC1` [Compound 086], the figures for the IC50 against HDAC3, against HDAC1 and against HDAC2 were 10 to 500 nM, under 10 nM and under 10 nM, respectively.

For the compound `Nc1ccc(-c2ccco2)cc1NC(=O)c1cnc(N2CCNCC2)cn1` [Compound 087], the IC50 at HDAC3 was 10 to 500 nM; against HDAC1, under 10 nM; against HDAC2, 10 to 500 nM.

Turning to `Nc1ccc(-c2ccoc2)cc1NC(=O)c1cnc(N2CCNCC2)cn1` [Compound 088], the IC50 at HDAC3 was 10 to 500 nM; against HDAC1, under 10 nM; at HDAC2 it was 10 to 500 nM.

For `Nc1ccc(-c2ccncc2)cc1NC(=O)c1cnc(N2CCNCC2)cn1` [Compound 089], the IC50 against HDAC3, against HDAC1 and against HDAC2 was 10 to 500 nM each time.

As to `Nc1ccc(-c2ccc(F)cc2)cc1NC(=O)c1cnc(N2CCNCC2)cn1` [Compound 090], the IC50 is 10 to 500 nM against HDAC3, under 10 nM at HDAC1 and 10 to 500 nM against HDAC2.
